Results published in patent US11565998B2, “Succinate prodrug, compositions containing the succinate prodrug and uses thereof” (ABLIVA AB, priority 2019, dated 2023).

Test system: rotenone-mediated inhibition of complex 1
Experiment: Pig model of rotenone induced mitochondrial complex 1 dysfunction
Assay type: in vivo, Yorkshire landrace hybrid pigs
Settings: rotenone infusion 7.1 mg/hr for 1.5 hours, below quantification
Protocol: To study the effect of rotenone-mediated inhibition of complex 1, Yorkshire landrace hybrid pigs were anaesthetised and implanted with venous catheters for simultaneous infusion of rotenone and Compound 1 or vehicle (PBS). Rotenone (7.1 mg/hr) was infused during 1.5 hours. Compound 1 was infused at a constant rate of 2 mg/kg/min over a period of 2.5 hours. The control animal was infused with PBS. Blood samples were taken with 30 min intervals and plasma was separated by centrifugation. Microdialysates were collected by inserting a microdialysis probe into the striatum of the brain and analysed for lactate using an ISCUS instrument (MDialysis). At the end of infusion, the animal was euthanised and terminal blood and organ samples were collected. Plasma and tissue samples were stored frozen and later analysed for succinate in an LC/MS method using a Thermo Vanquish UPLC+Thermo Quantis triple quadrupole MS instrument, an Acquity UPLC HSS C18 (100×2.1 mm, 1.8 μm) column with guard filter and gradient elution; A=0.1% Formic acid, B=Acetonitrile. [13C]-labelled succinate was used as internal standard. Lactate data were expressed as percentage of the baseline value obtained before start of rotenone infusion.

SMILES: C=C(C)[C@H]1Cc2c(ccc3c2O[C@@H]2COc4cc(OC)c(OC)cc4[C@@H]2C3=O)O1 [Rotenone]
- tissue concentrations of succinate: < 2 µM
